Assay results reported in ChEMBL document CHEMBL3885861, “Open TG-GATES”.

Organism: Rattus norvegicus
Assay: Open TG-GATES - Regimen: Daily Repeat
Format: toxicity, organism-based, Sprague-Dawley
Design: regimen Daily Repeat, gender Male, age 6 weeks
Settings: in vivo, po, route gavage; for TP / gamma-GTP / ALP / ALT / AST / CRE / Ca / Cl / DBIL / GLC / IP / K / LDH / RALB / TBIL / TC / TG: tissue Plasma; for APTT / Bas / Eos / Fbg / Ht / Lym / MCH / MCHC / MCV / Mono / PT / Plat / RBC / Ret / WBC / Neu: tissue Blood; for KIDNEY_L / KIDNEY_R / KIDNEY_TOTAL: tissue Kidney
[1] = 10 mg/kg, […], dose level Low, time 28 day
[2] = 30 mg/kg, 72 h, dose level Middle, time 3 day
[3] = 30 mg/kg, […], dose level Middle, time 7 day
[4] = 30 mg/kg, […], dose level Middle, time 14 day
[5] = 30 mg/kg, […], dose level Middle, time 28 day

Structure (SMILES): Cn1c(=O)c2c(ncn2C)n(C)c1=O [CAFFEINE]
- TP [1]: 6 g/dL
- gamma-GTP [1]: 2.4 IU/L
- TERMINAL_BW [2]: 223.8 g
- APTT [2]: 20.9 s
- Bas [2]: 0%
- Eos [2]: 0.8%
- Fbg [2]: 330 mg/dL
- Ht [2]: 41.1%
- Lym [2]: 84%
- MCH [2]: 21.2 pg
- MCHC [2]: 33.4%
- MCV [2]: 63.6 fL
- Mono [2]: 1.2%
- PT [2]: 15.5 s
- Plat [2]: 114.5 x10_4/uL
- RBC [2]: 646.4 x10_4/ul
- Ret [2]: 5.2%
- WBC [2]: 61.4 x10_2/uL
- KIDNEY_L [2]: 1 g
- KIDNEY_R [2]: 1 g
- KIDNEY_TOTAL [2]: 2 g
- ALP [2]: 1647.8 IU/L
- ALT [2]: 40 IU/L
- AST [2]: 67.4 IU/L
- CRE [2]: 0.2 mg/dL
- Ca [2]: 10.7 mg/dL
- Cl [2]: 108.8 meq/L
- DBIL [2]: 0 mg/dL
- GLC [2]: 179.6 mg/dL
- IP [2]: 8.1 mg/dL
- K [2]: 4.4 meq/L
- LDH [2]: 140.2 IU/L
- RALB [2]: 3.1 g/dL
- TBIL [2]: 0.004 mg/dL
- TC [2]: 73.8 mg/dL
- TG [2]: 87.6 mg/dL
- TP [2]: 5.6 g/dL
- gamma-GTP [2]: 1.2 IU/L
- TERMINAL_BW [3]: 245.2 g
- TERMINAL_BW [4]: 286.3 g
- TERMINAL_BW [5]: 380.2 g
- APTT [3]: 23.2 s
- Bas [3]: 0%
- Eos [3]: 0.8%
- Fbg [3]: 310.2 mg/dL
- Lym [3]: 80.8%
- MCHC [3]: 33.6%
- MCV [3]: 60.9 fL
- Mono [3]: 1.4%
- Neu [3]: 16%
- PT [3]: 15.2 s
- Plat [3]: 115.9 x10_4/uL
- RBC [3]: 687.8 x10_4/ul
- Ret [3]: 5.4%
- WBC [3]: 79 x10_2/uL
- APTT [4]: 23.9 s
- Bas [4]: 0%
- Eos [4]: 1%
- Fbg [4]: 309 mg/dL
- Ht [4]: 43.4%
- Lym [4]: 76.2%
- MCH [4]: 19.7 pg
- MCHC [4]: 33.7%
- MCV [4]: 58.4 fL
- Mono [4]: 2%
- Neu [4]: 20%
- PT [4]: 15.2 s
- Plat [4]: 109.9 x10_4/uL
- RBC [4]: 743.8 x10_4/ul
- Ret [4]: 3.9%
- WBC [4]: 108 x10_2/uL
- Bas [5]: 0%
- Eos [5]: 1%
- Fbg [5]: 315.2 mg/dL
- Ht [5]: 43.1%
- Lym [5]: 79.6%
- MCH [5]: 19.4 pg
- MCHC [5]: 35%
- MCV [5]: 55.4 fL
- Mono [5]: 2.4%
- PT [5]: 15.5 s
- Plat [5]: 100.3 x10_4/uL
- RBC [5]: 778.6 x10_4/ul
- Ret [5]: 2.7%
- WBC [5]: 99.4 x10_2/uL
- KIDNEY_L [3]: 1 g
- KIDNEY_R [3]: 1 g
- KIDNEY_TOTAL [3]: 2.1 g
- KIDNEY_L [4]: 1.1 g
- KIDNEY_R [4]: 1.2 g
- KIDNEY_TOTAL [4]: 2.3 g
- KIDNEY_L [5]: 1.5 g
- KIDNEY_R [5]: 1.5 g
- KIDNEY_TOTAL [5]: 3 g
- ALP [3]: 1455 IU/L
- ALT [3]: 45.6 IU/L
- AST [3]: 75.6 IU/L
- CRE [3]: 0.1 mg/dL
- Ca [3]: 10.4 mg/dL
- Cl [3]: 106.4 meq/L
- DBIL [3]: 0 mg/dL
- GLC [3]: 182.4 mg/dL
- IP [3]: 7.7 mg/dL
- K [3]: 4.1 meq/L
- LDH [3]: 158.8 IU/L
- RALB [3]: 3.1 g/dL
- TBIL [3]: 0.01 mg/dL
- TC [3]: 74.6 mg/dL
- TG [3]: 79.8 mg/dL
- TP [3]: 5.7 g/dL
- gamma-GTP [3]: 1.6 IU/L
- ALP [4]: 1460.4 IU/L
- ALT [4]: 47.6 IU/L
- AST [4]: 75.6 IU/L
- CRE [4]: 0.2 mg/dL
- Ca [4]: 10.4 mg/dL
- Cl [4]: 106.6 meq/L
- DBIL [4]: 0 mg/dL
- GLC [4]: 196 mg/dL
- IP [4]: 7 mg/dL
- K [4]: 4.2 meq/L
- LDH [4]: 145.8 IU/L
- RALB [4]: 3 g/dL
- TBIL [4]: 0.002 mg/dL
- TC [4]: 73.2 mg/dL
- TG [4]: 139.6 mg/dL
- TP [4]: 5.9 g/dL
- gamma-GTP [4]: 2.4 IU/L
- ALP [5]: 1003 IU/L
- ALT [5]: 44.8 IU/L
- AST [5]: 71.8 IU/L
- CRE [5]: 0.2 mg/dL
- Ca [5]: 10.7 mg/dL
- Cl [5]: 105.2 meq/L
- DBIL [5]: 0 mg/dL
- GLC [5]: 189.6 mg/dL
- IP [5]: 7.6 mg/dL
- K [5]: 3.9 meq/L
- LDH [5]: 126.6 IU/L
- RALB [5]: 3.2 g/dL
- TBIL [5]: 0.01 mg/dL
- TC [5]: 85.8 mg/dL
